We go through 14 molecules from ChEMBL document CHEMBL1139380, “Edaravone derivatives containing NO-donor functions” (J Med Chem, 2009).

Each structure is given as a SMILES string. Activity calls are given as the source filed them. The calls are words filed in the database; no cut-off is given here.

By IC50 is commonly meant the concentration at which inhibition is half-maximal. As usually defined, the pKa is the pH at which an ionisable group is half protonated. Low readings indicate a stronger acid or weaker base, high ones a weaker acid or stronger base. The logD is lipophilicity at a set pH, counting ionised and neutral species. Low readings indicate a more hydrophilic compound, high ones a more lipophilic compound. A word on the EC50: it is the concentration needed to bring the measured effect to its halfway point. The low end stands for an effect from little substance, the high end for a need for much substance. In general, logP refers to the decadic logarithm of the partition coefficient of the neutral form, usually between octanol and water. Low readings indicate lower lipophilicity, high ones higher lipophilicity.

The subject of series [1] is Liver microsomes.
Description: Antioxidant activity against Fe2SO4/ascorbate-induced lipid peroxidation in Wistar rat liver microsomal membrane by TBARS assay
Series [2] in a line: physchem.
Description: Dissociation constant, pKa by potentiometric titration
Series [3] in a line: physchem. Conditions: octanol/water, pH 7.4.
The conditions of series [4]: octanol/water.
Description: Lipophilicity, ionic log P by shake flask method
The test system of series [5] is Aorta. In words: tissue or blood. The note with it: Rattus norvegicus, Wistar.
Description: (§1) Vasodilation activity in Wistar rat aorta assessed as relaxation of phenylephrine-induced contraction
A short description of series [6]: physchem. The note with it: octanol/water.
Description: Lipophilicity, neutral log P of the compound
The subject of series [7] is Aorta.
Description: as §1
The subject of series [8] is Liver microsomes. In words: Antioxidant activity against […]/ascorbate-induced lipid peroxidation in Wistar rat liver microsomal membrane at 05 to 15 uM by TBARS assay. The format is functional. The note with it: Microsome. For orientation: Liver microsomes are vesicles of endoplasmic reticulum, rich in cytochrome P450 enzymes.

`CC1=NN(c2ccc(OCc3no[n+]([O-])c3C#N)cc2)C(=O)C1` returned an IC50 in the series with Liver microsomes [1] of 5800 nM. In addition, in the series “physchem [2]”, the pKa is 7.06. In the series “physchem [3]”, this molecule registered a logD of 1.28. Moreover, the logPi in series [4] is reported as -0.99. For the same molecule, in the series with Aorta [5], the EC50 came out at 23 nM. The logP in the series “physchem [6]” amounted to 1.72.
Consider `CC1=NN(c2ccccc2)C(=O)C1` [EDARAVONE], for which the IC50 in the series with Liver microsomes [1] is 17000 nM. In the series “physchem [2]”, this molecule registered a pKa of 6.9. Besides, the EC50 entry in the series with Aorta [7] is on record as “Not Active”. The molecule also registered a logD in “physchem [3]” of 0.78. Also, the log partition coefficient (logP) in the series “physchem [6]” is 1.28.
As to `COCCCO[N+](=O)[O-]`, in the series with Liver microsomes [8], the outcome was inactive. The EC50 with Aorta [5] worked out at 9600 nM. Moreover, the logP in “physchem [6]” turned out to be 1.01.
As to `COCCCCCCO[N+](=O)[O-]`, the result with Liver microsomes [8] was inactive. The molecule further had an EC50 in the series on Aorta [5] of 1400 nM. The molecule further gave a logP in the series “physchem [6]” of 2.23.
Take `COCc1no[n+]([O-])c1C(N)=O`: the result in the series with Liver microsomes [8] was inactive. In the series on Aorta [5], this molecule had an EC50 of 3900 nM. Moreover, the logP in “physchem [6]” stood at 0.14.
Consider `COc1no[n+]([O-])c1-c1ccccc1`, for which the result in the series with Liver microsomes [8] was inactive. Further, in the series on Aorta [5], the EC50 stood at 5600 nM. In “physchem [6]”, this molecule returned a logP of 2.47.
For `CC1=NN(c2ccc(OCc3no[n+]([O-])c3C(N)=O)cc2)C(=O)C1`, the IC50 in the series with Liver microsomes [1] turned out to be 7900 nM. In the series “physchem [2]”, this molecule had a pKa of 7.08. This molecule returned a logD in “physchem [3]” of 0.48. This molecule yielded an EC50 in the series with Aorta [5] of 2800 nM. Also, the lipophilicity (logP) in the series “physchem [6]” turned out to be 0.92.
For the molecule `CC1=NN(c2ccc(OCCCCC(CO[N+](=O)[O-])O[N+](=O)[O-])cc2)C(=O)C1` (stereo not drawn), in the series with Liver microsomes [1], the IC50 was 2900 nM. For the same molecule, the pKa in the series “physchem [2]” was determined as 7.15. Also, the log distribution coefficient (logD) in the series “physchem [3]” was 2.54. The logPi in series [4] is recorded as 0.05. This molecule yielded an EC50 in the series on Aorta [5] of 680 nM. In addition, the logP in the series “physchem [6]” stood at 3.1.
Consider `COCc1no[n+]([O-])c1C#N`, for which the outcome in the series on Liver microsomes [8] was inactive. The same molecule showed an EC50 in the series with Aorta [5] of 9.5 nM. This molecule came in with a lipophilicity (logP) in “physchem [6]” of 0.83.
In the case of `CCOc1no[n+]([O-])c1S(=O)(=O)c1ccccc1`, in the series on Liver microsomes [8], the outcome was inactive. In the series with Aorta [5], this molecule returned a half-maximal effective concentration (EC50) of 12 nM. The molecule also came in with a logP in “physchem [6]” of 3.15.
`COc1ccc(N2N=C(C)CC2=O)cc1` came in with a 50% inhibitory concentration (IC50) with Liver microsomes [1] of 20000 nM. Besides, the pKa in “physchem [2]” was 7.06. For the same molecule, the EC50 entry in the series on Aorta [7] was “Not Active”. The logD in “physchem [3]” is 0.77. Moreover, in “physchem [6]”, the logP is 1.19.
Turning to `CC1=NN(c2ccc(OCCCOc3no[n+]([O-])c3S(=O)(=O)c3ccccc3)cc2)C(=O)C1`, the IC50 in the series with Liver microsomes [1] worked out at 3800 nM. This molecule registered a pKa in “physchem [2]” of 7.12. Besides, the logD in “physchem [3]” was found to be 3.16. Also, the logPi in series [4] stood at 0.4. The EC50 with Aorta [5] is 77 nM. The molecule further gave a logP in the series “physchem [6]” of 3.62.
In the series on Liver microsomes [1], `CC1=NN(c2ccc(OCCCCCCO[N+](=O)[O-])cc2)C(=O)C1` registered an IC50 of 2100 nM. Moreover, the pKa in the series “physchem [2]” is 7.12. For the same molecule, the logD in “physchem [3]” came out at 2.67. The logPi in series [4] came to 0.15. The EC50 in the series with Aorta [5] was 980 nM. Moreover, the logP in the series “physchem [6]” is 3.34.
`CC1=NN(c2ccc(OCCCO[N+](=O)[O-])cc2)C(=O)C1` showed an IC50 with Liver microsomes [1] of 3400 nM. This molecule also displayed a pKa in the series “physchem [2]” of 7.11. For the same molecule, in “physchem [3]”, the log distribution coefficient (logD) came out at 1.59. The molecule also registered a logPi in series [4] of -1.07. In the series with Aorta [5], this molecule showed an EC50 of 1100 nM. Besides, the logP in the series “physchem [6]” was determined as 1.9.
